# Measured values: patent US9932630B2, “Method and system for decontaminating materials” (RASIRC, Inc., priority 2014, dated 2018)
# Legend:
# E. coli = details: 25° C.
# Excerpt: (§1) FIG. 4 schematic illustrates the apparatus used in this experiment. Equipment included: a purified clean dry air (CDA) gas supply; a pressurized deionized (DI) water supply; a pressure regulator with gauge, a Filterite MPTE-010-1/4CS 0.01 micron gas filter; 3 mass flow controllers (MFCs); an MFC control box; a Stable Gaseous Delivery (SGD) System (i.e., “Concentrator” in the diagram) and a relative humidity system (RHS) (RASIRC, San Diego, Calif.). Membranes using a fluorinated ion-exchange polymer prepared as an ammonium salt were utilized.
# Operation of the decontamination apparatus can be understood with reference to FIG. 4. The CDA gas pressure was maintained at 25 psig with the pressure regulator. A 0.01 micron filter removed particulates from the gas stream. The MFCs controlled the flow of the carrier gas streams and the dilution gas stream. The RHS was used to add water gas to the gas stream. […] The water temperature was used to control the output of the humidifier. The valves (V-1, V-2, and V-3) were used to send either the dry CDA gas stream, the RHS gas stream, and/or SGD gas stream through the furnace or out to vent. TC-1 will be used to measure the temperature of the dry CDA gas stream. TC-2 will be used to measure gas temperature downstream of the RHS. TC-3 and TC-4 were used to measure the gas temperature downstream of the SGD. […]
# bovine genomic DNA = system: bovine genomic DNA
# Excerpt: as §1
# Operation of the decontamination apparatus can be understood with reference to FIG. 4. The CDA gas pressure was maintained at 25 psig with the pressure regulator. A 0.01 micron filter removed particulates from the gas stream. The MFCs controlled the flow of the carrier gas streams and the dilution gas stream. […]
# A PCR plate to be used for quantifying amplifiable DNA was prepared with three replicates at each target input level (i.e., ranging from 0 ng to 1,000 ng). In each instance, measured aliquots of an aqueous solution of bovine genomic DNA were added to individual wells of the plate, and then dried. […] Amplification reactions were carried out using procedures familiar to those of ordinary skill in the art, and the appearance of fluorescent signals monitored as a function of time in a real-time format.
# bacterial samples = details: visible mist or fog present, droplets condensed onto the sample
structure (smiles),measurement,setting,value
"OO [Hydrogen Peroxide Gas, hydrogen peroxide]",Growth on tryptic soy agar plates after H202 treatment,"E. coli; E. coli 1.7×10^7 cfu per spot, gas-phase H2O2 at 505 ppm and H2O at 2122 ppm for 60 minutes",No Growth
same,number of viable bacteria after exposure,"E. coli; E. coli, gas-phase H2O2 505 ppm, 60 minutes",undetectable level
same,reduction of amplifiable DNA,bovine genomic DNA; sample containing the greatest amount of starting material,about 4 logs
same,amplifiable DNA after treatment,bovine genomic DNA; sample containing the lowest amount of starting material,completely undetectable
same,reduction of the number of viable organisms,bacterial samples,did not significantly reduce
